# Test results: patent US8557847B2, “Synergistic modulation of FLT3 kinase using a FLT3 inhibitor and a farnesyl transferase inhibitor” (Janssen Pharmaceutica, N.V., priority 2005, dated 2013)
# pIC50: −log10 of the molar value. Where a name gives a salt, the structure may show the parent alone.
# Columns and labels:
# [1] = molecular target: T1, isolated kinase domain of the human FLT3 receptor (a.a. 571-993) (Homo sapiens, UniProt P36888); assay: FLT3 fluorescence polarization kinase assay; assay type: biochemical; details: 150 uM ATP; uncertainty ±10%; read-out: Flt-3 IC50
# T1 construct: human FLT3 receptor (a.a. 571-993)
# T1 sequence (P36888 571-993): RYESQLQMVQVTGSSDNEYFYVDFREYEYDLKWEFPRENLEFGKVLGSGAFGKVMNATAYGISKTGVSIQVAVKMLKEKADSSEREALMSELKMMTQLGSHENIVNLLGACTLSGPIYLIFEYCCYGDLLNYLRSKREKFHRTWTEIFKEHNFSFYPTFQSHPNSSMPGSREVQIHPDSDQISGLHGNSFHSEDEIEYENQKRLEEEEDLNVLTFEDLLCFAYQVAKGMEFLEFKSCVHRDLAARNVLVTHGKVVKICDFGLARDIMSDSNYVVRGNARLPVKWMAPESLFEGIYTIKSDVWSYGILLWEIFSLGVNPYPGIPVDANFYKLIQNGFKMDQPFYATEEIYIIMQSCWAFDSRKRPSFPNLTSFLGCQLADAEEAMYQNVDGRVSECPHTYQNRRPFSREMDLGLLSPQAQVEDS
# From the text: The FLT3 FP assay utilizes the fluorescein-labeled phosphopeptide and the anti-phosphotyrosine antibody included in the Panvera Phospho-Tyrosine Kinase Kit (Green) supplied by Invitrogen. When FLT3 phosphorylates polyGlu4Tyr, the fluorescein-labeled phosphopeptide is displaced from the anti-phosphotyrosine antibody by the phosphorylated poly Glu4Tyr, thus decreasing the FP value. […] The kinase reaction is stopped with the addition of EDTA. The fluorescein-labeled phosphopeptide and the anti-phosphotyrosine antibody are added and incubated for 30 minutes at room temperature.
# Data points are an average of triplicate samples. Inhibition and IC50 data analysis was done with GraphPad Prism using a non-linear regression fit with a multiparamater, sigmoidal dose-response (variable slope) equation.
# MV4-11 cells = assay: Inhibition of MV4-11 cell proliferation (CellTiterGlo); assay type: cell-based; details: Homo sapiens, 72 hours growth, uncertainty ±20%
# Protocol: To assess the cellular potency of compounds of the present invention, FLT3 specific growth inhibition was measured in the leukemic cell line MV4-11 (ATCC Number: CRL-9591). […] MV4-11 cells cannot grow and survive without active FLT3ITD.
# To measure proliferation inhibition by compounds of the present invention, the luciferase based CellTiterGlo reagent (Promega), which quantifies total cell number based on total cellular ATP concentration, was used. Cells are plated at 10,000 cells per well in 100 ul of in RPMI media containing penn/strep, 10% FBS and 1 ng/ml GM-CSF or 1 ng/ml IL-3 for MV4-11 and Baf3 cells respectively.
# Compound dilutions or 0.1% DMSO (vehicle control) are added to cells and the cells are allowed to grow for 72 hours at standard cell growth conditions (37° C., 5% CO2). For activity measurements in MV4-11 cells grown in 50% plasma, cells were plated at 10,000 cells per well in a 1:1 mixture of growth media and human plasma (final volume of 100 μL). To measure total cell growth an equal volume of CellTiterGlo reagent was added to each well, according to the manufacturer's instructions, and luminescence was quantified. Total cell growth was quantified as the difference in luminescent counts (relative light units, RLU) of cell number at Day 0 compared to total cell number at Day 3 (72 hours of growth and/or compound treatment). One hundred percent inhibition of growth is defined as an RLU equivalent to the Day 0 reading. Zero percent inhibition was defined as the RLU signal for the DMSO vehicle control at Day 3 of growth.
# Data points are an average of triplicate samples. […] Inhibition and IC50 data analysis was done with GraphPad Prism using a non-linear regression fit with a multiparamater, sigmoidal dose-response (variable slope) equation. MV4-11 cells express the FLT3 internal tandem duplication mutation, and thus are entirely dependent upon FLT3 activity for growth. […] In contrast, the Baf3 cell proliferation is driven by the cytokine IL-3 and thus is used as a non-specific toxicity control.
# [2] = molecular target: T2, wild-type FLT3 phosphorylation in Baf3 FLT3 cells (Homo sapiens, UniProt P36888); assay: Cell-based FLT3 receptor ELISA; details: uncertainty ±20%
# T2 construct: host or cells: Baf3 (murine B cell lymphoma line)
# T2 sequence (P36888 27-993): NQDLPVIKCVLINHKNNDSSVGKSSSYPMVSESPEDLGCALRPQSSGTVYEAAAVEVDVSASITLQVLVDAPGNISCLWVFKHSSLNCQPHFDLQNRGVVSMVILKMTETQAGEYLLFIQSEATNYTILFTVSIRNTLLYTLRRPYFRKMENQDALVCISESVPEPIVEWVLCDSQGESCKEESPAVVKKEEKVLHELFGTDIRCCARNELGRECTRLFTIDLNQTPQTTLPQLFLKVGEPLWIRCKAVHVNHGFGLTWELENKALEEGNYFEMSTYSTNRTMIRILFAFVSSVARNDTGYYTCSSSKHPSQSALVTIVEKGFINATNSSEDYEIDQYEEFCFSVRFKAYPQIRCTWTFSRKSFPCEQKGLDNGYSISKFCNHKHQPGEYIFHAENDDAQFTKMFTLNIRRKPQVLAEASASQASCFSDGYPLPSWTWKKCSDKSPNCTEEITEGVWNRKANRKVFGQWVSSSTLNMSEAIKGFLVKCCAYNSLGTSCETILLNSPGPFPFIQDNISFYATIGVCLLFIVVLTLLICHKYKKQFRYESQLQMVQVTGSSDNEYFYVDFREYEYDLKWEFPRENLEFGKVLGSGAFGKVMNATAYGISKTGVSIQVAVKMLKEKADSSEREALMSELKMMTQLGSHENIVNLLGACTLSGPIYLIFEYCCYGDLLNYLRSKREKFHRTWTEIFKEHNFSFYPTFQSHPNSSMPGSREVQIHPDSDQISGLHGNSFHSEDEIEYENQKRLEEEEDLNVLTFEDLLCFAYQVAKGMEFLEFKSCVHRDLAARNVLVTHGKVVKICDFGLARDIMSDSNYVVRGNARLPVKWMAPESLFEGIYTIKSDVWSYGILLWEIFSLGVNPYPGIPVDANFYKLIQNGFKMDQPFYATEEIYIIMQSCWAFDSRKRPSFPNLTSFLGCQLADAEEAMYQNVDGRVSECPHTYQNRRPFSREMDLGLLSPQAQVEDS
# From the text: Data points are an average of triplicate samples. […] Leukemia.
Structure (SMILES),pIC50 [1],pIC50 [2],pIC50 (MV4-11 cells)
"N#Cc1c[nH]c(C(=O)Nc2ccc(C3CCNCC3)cc2C2=CCS(=O)(=O)CC2)n1 [Compound 36, 4-Cyano-1H-imidazole-2-carboxylic acid [2-(1,1-dioxo-1,2,3,6-tetrahydro-1λ6-thiopyran-4-yl)-4-piperidin-4-yl-phenyl]-amide trifluoroacetic acid salt]",5.04,–,6.72
"CS(=O)(=O)CCN1CCC(c2ccc(NC(=O)c3nc(C#N)c[nH]3)c(C3=CCCCC3)c2)CC1 [Compound 40, 4-Cyano-1H-imidazole-2-carboxylic acid {2-cyclohex-1-enyl-4-[1-(2-methanesulfonyl-ethyl)-piperidin-4-yl]-phenyl}-amide]",–,–,6.94
CN1CCN(c2ccc(NC(=O)c3ccc(C#N)o3)c(C3=CCOCC3)c2)CC1 [Compound 12],5.91,–,–
"CC1CC=C(c2cc(C3CCNCC3)ccc2NC(=O)c2nc(C#N)c[nH]2)CC1 (centres unmarked) [Compound 17, 4-Cyano-1H-imidazole-2-carboxylic acid [2-(4-methyl-cyclohex-1-enyl)-4-piperidin-4-yl-phenyl]-amide trifluoroacetic acid salt]",7.89,–,–
"N#Cc1c[nH]c(C(=O)Nc2ccc(C3CCN(C(CO)CO)CC3)cc2C2=CCCCC2)n1 [Compound 6, 4-Cyano-1H-imidazole-2-carboxylic acid {2-cyclohex-1-enyl-4-[1-(2-hydroxy-1-hydroxymethyl-ethyl)-piperidin-4-yl]-phenyl}-amide trifluoroacetic acid salt]",7.09,–,–
"CC1(C)CC=C(c2nc(C3CCN(CCS(C)(=O)=O)CC3)ccc2NC(=O)c2nc(C#N)c[nH]2)CC1 [Compound 56, 4-Cyano-1H-imidazole-2-carboxylic acid [6-(4,4-dimethyl-cyclohex-1-enyl)-1′-(2-methanesulfonyl-ethyl)-1′,2′,3′,4′,5′,6′-hexhydro-[2,4]bipyridinyl-5-yl]-amide trifluoroacetic acid salt]",6.85,–,–
"N#Cc1c[nH]c(C(=O)Nc2ccc(C3CCS(=O)(=O)CC3)cc2C2=CCCCC2)n1 [Compound 35, 4-Cyano-1H-imidazole-2-carboxylic acid [2-cyclohex-1-enyl-4-(1,1-dioxo-hexahydro-1λ^6-thiopyran-4-yl)-phenyl]-amide]",6.92,–,–
"N#Cc1c[nH]c(C(=O)Nc2ccc(C3CCN(CCN4CCOCC4)CC3)cc2C2=CCCCC2)n1 [Compound 34, 4-Cyano-1H-imidazole-2-carboxylic acid {2-cyclohex-1-enyl-4-[1-(2-morpholin-4-yl-ethyl)-piperidin-4-yl]-phenyl}-amide di-trifluoroacetic acid salt]",–,–,8.10
"C[C@@H]1CC(c2ccc(NC(=O)c3ncc(C#N)[nH]3)c(C3=CCCCC3)c2)C[C@H](C)N1 (stereo partly drawn) [Compound 51a, 5-Cyano-1H-imidazole-2-carboxylic acid [2-cyclohex-1-enyl-4-(cis-2,6-dimethyl-piperidin-4-yl)-phenyl]-amide bis trifluoroacetic acid salt]",8.64,–,–

# The remaining compounds from weak to strong by pIC50 [1], led by results:
pIC50 [1],pIC50 [2],Structure (SMILES),pIC50 (MV4-11 cells)
6.43,–,"N#Cc1c[nH]c(C(=O)Nc2ccc(C3CCN(C(N)=O)CC3)cc2C2=CCCCC2)n1 [Compound 24, 4-{4-[(4-Cyano-1H-imidazole-2-carbonyl)-amino]-3-cyclohex-1-enyl-phenyl}-piperidine-1-carboxylic acid amide]",–
6.89,–,"CS(=O)(=O)CC(=O)N1CCC(c2ccc(NC(=O)c3nc(C#N)c[nH]3)c(C3=CCCCC3)c2)CC1 [Compound 20, 4-Cyano-1H-imidazole-2-carboxylic acid {2-cyclohex-1-enyl-4-[1-(2-methanesulfonyl-acetyl)-piperidin-4-yl]-phenyl}-amide]",–
7.01,–,"Cc1ccccc1-c1cc(N2CCN(C)CC2)ccc1NC(=O)c1ccc(C#N)o1 [Compound 9, 5-Cyano-furan-2-carboxylic acid [2′-methyl-5-(4-methyl-piperazin-1-yl)-biphenyl-2-yl]-amide]",–
7.28,–,"N#Cc1c[nH]c(C(=O)Nc2ccc(C3CCN(CCO)CC3)cc2C2=CCCCC2)n1 [Compound 26, 4-Cyano-1H-imidazole-2-carboxylic acid {2-cyclohex-1-enyl-4-[1-(2-hydroxy-ethyl)-piperidin-4-yl]-phenyl}-amide trifluoroacetic acid salt]",–
7.41,–,"CC(=O)N1CCC(c2ccc(NC(=O)c3nc(C#N)c[nH]3)c(C3=CCCCC3)c2)CC1 [Compound 16, 4-Cyano-1H-imidazole-2-carboxylic acid [4-(1-acetyl-piperidin-4-yl)-2-cyclohex-1-enyl-phenyl]-amide]",–
7.41,–,"CC(=O)N1CCC(c2ccc(NC(=O)c3nc(C#N)c[nH]3)c(C3=CCCNC3)c2)CC1 [Compound 46, 4-Cyano-1H-imidazole-2-carboxylic acid [4-(1-acetyl-piperidin-4-yl)-2-(1,2,5,6-tetrahydro-pyridin-3-yl)-phenyl]-amide trifluoroacetic acid salt]",–
7.47,–,"N#Cc1c[nH]c(C(=O)Nc2ccc(C3CCNCC3)cc2C2=CCCCC2)c1 [Compound 13, 4-Cyano-1H-pyrrole-2-carboxylic acid (2-cyclohex-1-enyl-4-piperidin-4-yl-phenyl)-amide trifluoroacetic acid salt]",–
7.49,6.11,"N#Cc1c[nH]c(C(=O)Nc2ccc(C3CCNCC3)cc2C2=CCCCC2)n1 [Compound 14, 4-Cyano-1H-imidazole-2-carboxylic acid (2-cyclohex-1-enyl-4-piperidin-4-yl-phenyl)-amide trifluoroacetic acid salt]",–
7.80,–,"Cn1ccnc1CN1CCC(c2ccc(NC(=O)c3nc(C#N)c[nH]3)c(C3=CCCC3)c2)CC1 [Compound 23, 4-Cyano-1H-imidazole-2-carboxylic acid {2-cyclopent-1-enyl-4-[1-(1-methyl-1H-imidazol-2-ylmethyl)-piperidin-4-yl]-phenyl}-amide trifluoroacetic acid salt]",–
